According to patent US10408783B2, “Electrochemical methods and compounds for the detection of enzymes” (GEORGIA STATE UNIVERSITY RESEARCH FOUNDATION, INC., priority 2014, dated 2019):
Entries after “also recorded” stand apart in the source; their conditions may differ.

Columns and labels:
[1] = test system: A/New York/18/2009 (H1N1); assay: Electrochemical assay using the printed electrodes; type: biochemical, Influenza A virus; details: 100 μL virus + 100 μL PBS buffer with SG1, 1 hour, 37° C.; 20 μL tested
[2] = test system: A/Brisbane/59/2007 (H1N1); assay: Electrochemical assay using the printed electrodes; type: biochemical, Influenza A virus; details: 100 μL virus + 100 μL PBS buffer with SG1, 1 hour, 37° C.; 20 μL tested
[3] = Electrochemical assay using the printed electrodes, SG1 without virus; details: No virus + SG1 (negative control)
[4] = test system: A/California/07/2009 (H1N1); assay: Electrochemical assay using the printed electrodes; type: biochemical, Influenza A virus; details: 100 μL virus + 100 μL PBS buffer with SG1, 1 hour, 37° C.; 20 μL tested
[5] = Electrochemical assay, 3 electrode system: SG1 in PBS buffer without enzyme; details: SG1 0.5 mM in PBS buffer, no NA or virus
H3N2 A/HongKong/8/68 = assay: Electrochemical assay, 3 electrode system: SG1 cleavage and drug susceptibility; type: biochemical, Influenza A virus; details: 100 μL UV inactivated virus, 1 hour
[6] = test system: A/PuertoRico/8/1934 (H1N1); assay: Electrochemical assay using the printed electrodes; type: biochemical, Influenza A virus; details: 100 μL virus + 100 μL PBS buffer with SG1, 1 hour, 37° C.; 20 μL tested
[7] = test system: A/Beijing/262/1995 (H1N1); assay: Electrochemical assay using the printed electrodes; type: biochemical, Influenza A virus; details: 100 μL virus + 100 μL PBS buffer with SG1, 1 hour, 37° C.; 20 μL tested
[8] = test system: A/Solomon Islands/3/2006 (H1N1); assay: Electrochemical assay using the printed electrodes; type: biochemical, Influenza A virus; details: 100 μL virus + 100 μL PBS buffer with SG1, 1 hour, 37° C.; 20 μL tested
H1N1 A/Brisbane/59/2007 = assay: Electrochemical assay, 3 electrode system: SG1 cleavage and drug susceptibility; type: biochemical, Influenza A virus
A/HongKong/8/1968 (H3N2) = assay: Electrochemical assay using the printed electrodes; type: biochemical, Influenza A virus; details: 100 μL virus + 100 μL PBS buffer with SG1, 1 hour, 37° C.; 20 μL tested
[9] = test system: membrane free soluble N1 NA (strain H5N1 A/Anhui/1/2005); type: biochemical, influenza virus; details: SG1 0.5 mM, 2 hours, 23° C., PBS buffer
A/Aichi/2/1968 (H1N1) = assay: Electrochemical assay using the printed electrodes; type: biochemical, Influenza A virus
[10] = test system: A/New Caledonia/20/1999 (H1N1); assay: Electrochemical assay using the printed electrodes; type: biochemical, Influenza A virus
[11] = test system: bacterial NA (BNA) from Clostridium perfringens; type: biochemical; details: bacterial NA, no antiviral
[12] = test system: A/Wisconsin/629-D02452/2009 (H1N1); assay: Electrochemical assay using the printed electrodes; type: biochemical, Influenza A virus; details: 100 μL virus + 100 μL PBS buffer with SG1, 1 hour, 37° C.; 20 μL tested
[13] = test system: A/Nanching/933/1995 (H3N2); assay: Electrochemical assay using the printed electrodes; type: biochemical, Influenza A virus; details: 100 μL virus + 100 μL PBS buffer with SG1, 1 hour, 37° C.; 20 μL tested
[14] = test system: A/Wisconsin/15/2009 (H3N2); assay: Electrochemical assay using the printed electrodes; type: biochemical, Influenza A virus; details: 100 μL virus + 100 μL PBS buffer with SG1, 1 hour, 37° C.; 20 μL tested
A/Sydney/5/1997 (H3N2) = assay: Electrochemical assay using the printed electrodes; type: biochemical, Influenza A virus; details: 100 μL virus + 100 μL PBS buffer with SG1, 1 hour, 37° C.; 20 μL tested
[15] = test system: A/Wilson-Smith/1933 (H1N1); assay: Electrochemical assay using the printed electrodes; type: biochemical, Influenza A virus; details: 100 μL virus + 100 μL PBS buffer with SG1, 1 hour, 37° C.; 20 μL tested
[16] = test system: N2 NA (strain A/Babol/36/2005); assay: Electrochemical assay, 3 electrode system: SG1 cleavage and drug susceptibility; type: biochemical, influenza virus; details: SG1 0.5 mM, 2 hours, 23° C., PBS buffer
[17] = test system: A/Victoria/361/2011 (H3N2); assay: Electrochemical assay using the printed electrodes; type: biochemical, Influenza A virus; details: 100 μL virus + 100 μL PBS buffer with SG1, 1 hour, 37° C.; 20 μL tested
[18] = test system: A/Uruguay/716/2007 (H3N2); assay: Electrochemical assay using the printed electrodes; type: biochemical, Influenza A virus; details: 100 μL virus + 100 μL PBS buffer with SG1, 1 hour, 37° C.; 20 μL tested
[19] = test system: A/San Diego/1/2009 (H1N1); assay: Electrochemical assay using the printed electrodes; type: biochemical, Influenza A virus; details: 100 μL virus + 100 μL PBS buffer with SG1, 1 hour, 37° C.; 20 μL tested
[20] = test system: A/Brownsville/31H/2009 (H1N1); assay: Electrochemical assay using the printed electrodes; type: biochemical, Influenza A virus; details: 100 μL virus + 100 μL PBS buffer with SG1, 1 hour, 37° C.; 20 μL tested
H3N2 A/Aichi/2/1968 = assay: Electrochemical assay, 3 electrode system: SG1 cleavage and drug susceptibility; type: biochemical, Influenza A virus; details: 100 μL UV inactivated virus, 1 hour
α-L-Fucosidase = type: biochemical; details: substrate incubated with α-L-Fucosidase
H1N1 virus [21] = assay: Hydrolysis of the probe by intact influenza virus followed by mass spectrum; type: biochemical; details: pH 5.68, 37° C.
H5N1 NA = type: biochemical, influenza virus; details: H5N1 NA overnight
H3N2 virus [22] = assay: Hydrolysis of sialylglucose by intact influenza virus, amperometric glucose measurement; type: biochemical; details: H3N2 virus overnight
influenza NA = assay: Hydrolysis of the probe by influenza NA followed by mass spectroscopy; type: biochemical, influenza virus
H3N2 NA = type: biochemical, influenza virus; details: H3N2 NA overnight
H3N2 virus [23] = assay: Hydrolysis of the probe by intact influenza virus followed by mass spectrum; type: biochemical; details: pH 5.68, 37° C.
H1N1 virus [24] = assay: Hydrolysis of sialylglucose by intact influenza virus, amperometric glucose measurement; type: biochemical; details: for current compared with glucose standard solution: H1N1 virus
[25] = test system: β-N-Acetylglucosaminidase; type: biochemical; details: substrate incubated with β-N-Acetylglucosaminidase
α-Mannosidase = type: biochemical; details: substrate incubated with α-Mannosidase
β-Glucuronidase = details: substrate incubated with β-Glucuronidase
[26] = 0.5 mM SG1, compared with one hour for most strains
[27] = 100 μL virus + 100 μL PBS buffer with SG1, 1 hour, 37° C., 20 μL tested
[28] = H1N1 virus 1 h, 1 mM substrate, pH 5.68, 37° C.

SMILES: CC(=O)N[C@H]1[C@H]([C@H](O)[C@H](O)CO)O[C@@](OC[C@H]2OC(O)[C@H](O)[C@@H](O)[C@@H]2O)(C(=O)O)C[C@@H]1O (stereo partly drawn) [SG1, 5-acetamido-3,5-dideoxy-D-glycero-α-D-galacto-non-2-ulopyranosylonate-(2→6)-α,β-D-gluco pyranoside]
- Electrochemical assay (current) [1]: 74.4 ± 5.6 ×10^−8 A
- Electrochemical assay (current) [2]: 106.2 ± 5.1 ×10^−8 A
- Electrochemical assay (current) [3]: 3.6 ± 2.2 ×10^−8 A
- Electrochemical assay (current) [4]: 13.4 + 1.5 ×10^−8 A
- glucose release in the absence of enzymes [5]: no glucose released
- cleavage of SG1 / glucose release (H3N2 A/HongKong/8/68): cleave SG1, releasing glucose; also recorded: Glucose was released
- Electrochemical assay (current) [6]: 13.4 ± 2.0 ×10^−8 A
- Electrochemical assay (current) [7]: 118.1 ± 11.6 ×10^−8 A
- Electrochemical assay (current) [8]: 79.7 ± 5.0 ×10^−8 A
- matrix effect on cleavage of SG1 (H1N1 A/Brisbane/59/2007): does not affect the cleavage
- cleavage of SG1 / glucose release (H1N1 A/Brisbane/59/2007; 100 μL UV inactivated virus, 1 hour): cleave SG1, releasing glucose; also recorded: Glucose was released
- Electrochemical assay (current) (A/HongKong/8/1968 (H3N2)): 64.4 ± 5.2 ×10^−8 A
- cleavage of SG1 / glucose release [9]: complete cleavage; also recorded: Glucose was released
- time to completely cleave SG1 (A/Aichi/2/1968 (H1N1); [26]): require longer time to completely cleave SG1
- Electrochemical assay (current) (A/Aichi/2/1968 (H1N1); [27]): 31.3 ± 5.3 ×10^−8 A
- time to completely cleave SG1 [10, 26]: require longer time to completely cleave SG1
- Electrochemical assay (current) [10, 27]: 17.7 ± 2.6 ×10^−8 A
- cleavage of SG1 / glucose release [11]: cleaves SG1 to release glucose
- Electrochemical assay (current) [12]: 98.9 ± 5.7 ×10^−8 A
- Electrochemical assay (current) [13]: 15.1 + 2.8 ×10^−8 A
- Electrochemical assay (current) [14]: 107.8 ± 5.9 ×10^−8 A
- Electrochemical assay (current) (A/Sydney/5/1997 (H3N2)): 115.7 ± 4.3 ×10^−8 A
- Electrochemical assay (current) [15]: 99.5 ± 4.4 ×10^−8 A
- cleavage of SG1 / glucose release [16]: complete cleavage; also recorded: Glucose was released
- Electrochemical assay (current) [17]: 94.5 ± 2.3 ×10^−8 A
- Electrochemical assay (current) [18]: 132.4 ± 6.3 ×10^−8 A
- Electrochemical assay (current) [19]: 108.5 ± 12.0 ×10^−8 A
- Electrochemical assay (current) [20]: 91.7 ± 9.7 ×10^−8 A
- cleavage of SG1 / glucose release (H3N2 A/Aichi/2/1968): cleave SG1, releasing glucose; also recorded: Glucose was released

SMILES: CC1O[C@@H](OCC2OC(O)C(O)[C@@H](O)[C@@H]2O)C(O)[C@@H](O)[C@@H]1O (stereo partly drawn) [Substrate 25]
- i, value of electrochemical assay (α-L-Fucosidase): 44.5 ± 2.9 10^−8 A

SMILES: CC(=O)N[C@H]1[C@H]([C@H](O)[C@H](O)CO)O[C@@](OC[C@H]2O[C@H](O)[C@H](O)[C@@H](O)[C@@H]2O)(C(=O)O)C[C@@H]1O [sialylglucose, 5-acetamido-3,5-dideoxy-D-glycero-α-D-galacto-non-2-ulopyranosylonate-(2→6) α-D-glucopyranoside]
- hydrolysis by intact influenza virus (mass spectrum) (H1N1 virus [21]): complete hydrolysis
- Calculated Glucose Concentration (H5N1 NA): 66.47 µM
- Current (H5N1 NA): 7.647E−08 A
- Calculated Glucose Concentration (H3N2 virus [22]): 76.09 µM
- Current (H3N2 virus [22]): 8.609E−08 A
- hydrolysis of the probe by NA (mass spectrum) (influenza NA; pH 5.68, 37° C., overnight): substrate peak could no longer be observed
- hydrolysis of the probe by NA (mass spectrum) (influenza NA; pH 7.40, room temperature, overnight incubation): incomplete hydrolysis
- Calculated Glucose Concentration (H3N2 NA): 102.3 µM
- Current (H3N2 NA): 1.123E−07 A
- hydrolysis by intact influenza virus (mass spectrum) (H3N2 virus [23]): complete hydrolysis
- Calculated Glucose Concentration (H1N1 virus [24]; [28]): 116.2 µM
- Current (H1N1 virus [24]; [28]): 1.262E−07 A
- Calculated Glucose Concentration (H1N1 virus [24]; H1N1 virus 5 h): 126.6 µM
- Current (H1N1 virus [24]; H1N1 virus 5 h): 1.366E−07 A
- Calculated Glucose Concentration (H1N1 virus [24]; H1N1 virus overnight): 50.66 µM
- Current (H1N1 virus [24]; H1N1 virus overnight): 6.066E−08 A
- current compared with 1 h and 5 h samples (H1N1 virus [24]; H1N1 virus overnight): significantly lower current
- current compared with glucose standard solution (H1N1 virus [24]; hydrolysis stopped at 1 h): ~100 µM
- current compared with glucose standard solution (H1N1 virus [24]; hydrolysis stopped at 5 h): ~100 µM

SMILES: CC(=O)NC1[C@@H](Oc2ccc(CO[C@@H]3OC(CO)[C@@H](O)[C@H](O)C3O)cc2)OC(CO)[C@@H](O)[C@@H]1O (stereo partly drawn) [Substrate 24]
- i, value of electrochemical assay [25]: 11.1 ± 2.3 10^−8 A

SMILES: CC1O[C@@H](Oc2ccc(CO[C@@H]3OC(CO)[C@@H](O)[C@H](O)C3O)cc2)C(O)[C@@H](O)[C@@H]1O (stereo partly drawn) [Substrate 26]
- i, value of electrochemical assay (α-L-Fucosidase): 25.2 ± 2.9 10^−8 A

SMILES: O=C(O)C1O[C@@H](Oc2ccc(CO[C@@H]3OC(CO)[C@@H](O)[C@H](O)C3O)cc2)C(O)[C@@H](O)[C@@H]1O (stereo partly drawn) [Substrate 22, 1-(4-Hydroxymethylphenyl)-β-D-glucopyronuronic acid-1-α/β-D-glucopyranoside]
- i, value of electrochemical assay (α-Mannosidase): 12.3 ± 1.2 10^−8 A
- i, value of electrochemical assay (β-Glucuronidase): 65.1 ± 4.6 10^−8 A
- i, value of electrochemical assay (α-L-Fucosidase): 9.7 ± 3.5 10^−8 A
